Where “and” joins values, the source holds several entries; their conditions need not be identical. Equal values may be shown once.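 Values below derive from 48-hour exposures of cells grown in 96-well plates, with endpoints linearly interpolated between the two concentrations bracketing the appropriate inhibition level. The concentration for 50% growth inhibition is given as GI50. TGI marks complete inhibition of growth.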
Legend:
Assay in all cases: growth of human tumour cells (NCI), 48 h
SNB-19 CNS = tested on: SNB-19 CNS
HCT-15 colon = tested on: HCT-15 colon
MDA-MB-435 = tested on: MDA-MB-435
HOP-92 NSCLC = tested on: HOP-92 NSCLC
UACC-62 melanoma = tested on: UACC-62 melanoma
SK-MEL-5 melanoma = tested on: SK-MEL-5 melanoma
K-562 leukemia = tested on: K-562 leukemia
OVCAR-4 ovarian = tested on: OVCAR-4 ovarian
SF-295 CNS = tested on: SF-295 CNS
A498 renal = tested on: A498 renal

Structure (SMILES)	GI50 (SNB-19 CNS)	TGI (SNB-19 CNS)	GI50 (HCT-15 colon)	TGI (HCT-15 colon)	GI50 (MDA-MB-435)	TGI (MDA-MB-435)	GI50 (HOP-92 NSCLC)	TGI (HOP-92 NSCLC)	GI50 (UACC-62 melanoma)	TGI (UACC-62 melanoma)	GI50 (SK-MEL-5 melanoma)	TGI (SK-MEL-5 melanoma)	GI50 (K-562 leukemia)	TGI (K-562 leukemia)	GI50 (OVCAR-4 ovarian)	TGI (OVCAR-4 ovarian)	GI50 (SF-295 CNS)	TGI (SF-295 CNS)	GI50 (A498 renal)	TGI (A498 renal)
CC1(C)CC2CC(C)(CN2c2ncnc3ccc(Br)cc23)C1 (stereo not given)	14.4 µM	30.5 µM	15.5 µM	28.9 µM	3.98 µM	27.7 µM	13.4 µM	27.3 µM	5.76 µM	19.5 µM	8.88 µM	21.6 µM	1.62 µM	6.79 µM	14.1 µM	27.1 µM	3.34 µM	16.3 µM	–	–
CC(=O)N[C@@H](Cc1ccc(OP(=O)(O)O)cc1)C(=O)N[C@H]1CCC(=O)N2CCC[C@@H](C(=O)NCc3ccc(O)cc3)N2C1=O	> 25 µM	> 25 µM	> 25 µM	> 25 µM	> 25 µM	> 25 µM	–	–	> 25 µM	> 25 µM	> 25 µM	> 25 µM	> 25 µM	> 25 µM	> 25 µM	> 25 µM	> 25 µM	> 25 µM	> 25 µM	> 25 µM
CC[O-].CC[O-].O=C([CH-]C(=O)c1ccccc1)c1ccccc1.O=C([CH-]C(=O)c1ccccc1)c1ccccc1.[Ti+4]	–	–	> 100 µM	> 100 µM	–	–	44.3 µM	> 100 µM	> 100 µM	> 100 µM	> 100 µM	> 100 µM	–	–	> 100 µM	> 100 µM	> 100 µM	> 100 µM	> 100 µM	> 100 µM
N#Cc1ccccc1Nc1ccccc1S	–	60.5 µM	–	–	–	–	–	80.3 µM	–	37.8 µM	–	44.8 µM	–	> 100 µM	–	> 100 µM	–	65.4 µM	–	> 100 µM
C[N+]1=c2c3cccc4cccc(c(=O)n2CCC1)c43	–	–	–	> 100 µM	–	–	–	93.3 µM	–	34.1 µM	–	32.5 µM	–	32 µM	–	42.9 µM	–	> 100 µM	–	36.5 µM
N#CC(C#N)=Cc1ccc(-c2ccc(-c3nc4ccccc4o3)cc2)o1	> 100 µM	> 100 µM	20.2 µM	> 100 µM	57 µM	> 100 µM	–	–	42.4 µM	> 100 µM	13.1 µM	62.5 µM	19.3 µM	> 100 µM	> 100 µM	> 100 µM	30.1 µM	> 100 µM	24.9 µM	70 µM
CON	> 100 µM	> 100 µM	> 100 µM	> 100 µM	> 100 µM	> 100 µM	> 100 µM	> 100 µM	> 100 µM	> 100 µM	> 100 µM	> 100 µM	–	–	> 100 µM	> 100 µM	> 100 µM	> 100 µM	–	–
O=C1c2ccccc2C(=O)c2sc(Nc3ccc(Cl)c(Cl)c3)nc21	–	32.9 µM	–	5.06 µM	–	–	–	28 µM	–	7.94 µM	–	5.83 µM	–	17.9 µM	–	5.69 µM	–	29.4 µM	–	31.6 µM
NC(=O)CCC(NC(=O)C(F)(F)F)C(=O)O (stereo not given)	–	> 100 µM	–	> 100 µM	–	–	–	> 100 µM	–	> 100 µM	–	> 100 µM	–	> 100 µM	–	> 100 µM	–	> 100 µM	–	> 100 µM
O=C1CCC(=O)C(C(=O)CCC(=O)Nc2cccc(Cl)c2)C1 (stereo not given)	–	> 100 µM	–	> 100 µM	–	–	–	> 100 µM	–	> 100 µM	–	> 100 µM	–	> 100 µM	–	–	–	> 100 µM	–	> 100 µM
CC(C)NC(=O)O/N=C1\CCC2[C@@H]3CC=C4C[C@@H](OC(=O)NC(C)C)CC[C@]4(C)C3CC[C@]12C (stereo not given in full)	–	6.05 µM	–	3.08 µM	–	–	–	5.02 µM	–	3.18 µM	–	–	–	5.85 µM	–	3.5 µM	–	7.67 µM	–	> 30.3 µM
CCOC(=O)CNC(=O)C(CSC(=O)N(C)O)NC(=O)CCC(N)C(=O)O (stereo not given)	> 2000 µM	> 2000 µM	> 2000 µM	> 2000 µM	–	–	> 2000 µM	> 2000 µM	> 2000 µM	> 2000 µM	> 2000 µM	> 2000 µM	> 2000 µM	> 2000 µM	> 2000 µM	> 2000 µM	–	–	> 2000 µM	> 2000 µM
CC1=NN(c2ccccc2)C(=O)C1N=Nc1ccc(Br)c(C)c1 (stereo not given)	–	> 100 µM	–	> 100 µM	–	–	–	> 100 µM	–	> 100 µM	–	> 100 µM	–	> 100 µM	–	> 100 µM	–	> 100 µM	–	> 100 µM
OC1C2C=CCC1CCC2 (stereo not given)	–	> 100 µM	–	–	–	–	–	> 100 µM	–	> 100 µM	–	> 100 µM	–	> 100 µM	–	> 100 µM	–	> 100 µM	–	> 100 µM
COc1cc(C2C(C#N)=C(N)Oc3cc4c(cc32)OCO4)cc2c1OCO2 (stereo not given)	0.709 µM	> 100 µM	0.446 µM	> 100 µM	–	–	0.407 µM	46.8 µM	0.285 µM	> 100 µM	0.101 µM	14.3 µM	0.068 µM	> 100 µM	0.931 µM	> 100 µM	0.209 µM	> 100 µM	0.103 µM	–
Cc1ccc(-c2cc(/C=N/O)on2)cc1	> 100 µM	> 100 µM	64.6 µM	> 100 µM	52.1 µM	> 100 µM	47.6 µM	> 100 µM	38.9 µM	> 100 µM	–	–	–	–	> 100 µM	> 100 µM	33.9 µM	> 100 µM	41.3 µM	> 100 µM
CC(C)[O-].CC(C)[O-].[O-]c1cccc2cccnc12.[O-]c1cccc2cccnc12.[Ti+4]	61.6 µM	> 100 µM	4.79 µM and 8.05 µM	> 100 µM	–	–	14.3 µM	50.3 µM	28.5 µM	> 100 µM	25.2 µM	–	3.04 µM and 3.37 µM	> 100 µM	–	–	> 100 µM	> 100 µM	–	–
CCOC(=O)N1CCC(=O)C[C@@H]1C/C=C/P1(=O)O[C@H](c2ccccc2)C(C)N1C(C)C (stereo not given in full)	–	> 100 µM	–	> 100 µM	–	–	–	> 100 µM	–	> 100 µM	–	> 100 µM	–	> 100 µM	–	> 100 µM	–	> 100 µM	–	–
C=C1CC(C/C=C(\C)CC2CC(=C)C(=O)O2)OC1=O (stereo not given)	–	> 100 µM	–	> 100 µM	–	–	–	> 100 µM	–	> 100 µM	–	> 100 µM	–	> 100 µM	–	> 100 µM	–	> 100 µM	–	> 100 µM

Reference: PubChem BioAssay (NCI)
